Data on two molecules can be found in US20080096811A1, “[…] VPAC2 RECEPTOR PEPTIDE AGONISTS” (Eli Lilly and Company, published 2008).

*1 amine or outer side, *2 acyl side, *3 side chain or, on linkers, in order; H or OH if unused. Where a SMILES comes first, the peptide text is derived from it. Side-chain parts run from the residue outwards. The star is where a group is joined. γGlu = O=C(O)[C@H](CCC(=O)[*:2])N[*:1]; Palmitoyl = CCCCCCCCCCCCCCCC(=O)*; Hexanoyl = CCCCCC(=O)*

Data set [1] deals with T1, human VPAC2 (Homo sapiens, UniProt P41587).
T1 construct: expressed in transfected cells
T1 sequence (P41587 24-438): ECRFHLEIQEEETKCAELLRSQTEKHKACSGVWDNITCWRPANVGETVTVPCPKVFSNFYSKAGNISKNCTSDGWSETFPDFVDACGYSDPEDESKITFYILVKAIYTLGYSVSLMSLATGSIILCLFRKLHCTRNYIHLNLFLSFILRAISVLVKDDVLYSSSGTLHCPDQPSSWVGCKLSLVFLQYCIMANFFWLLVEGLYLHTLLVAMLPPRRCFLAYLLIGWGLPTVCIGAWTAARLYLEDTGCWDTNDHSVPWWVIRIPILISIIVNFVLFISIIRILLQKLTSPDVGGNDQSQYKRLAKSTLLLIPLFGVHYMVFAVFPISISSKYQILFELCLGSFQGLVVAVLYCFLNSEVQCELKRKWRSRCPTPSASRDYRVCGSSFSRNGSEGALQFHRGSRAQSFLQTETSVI
Put plainly: DiscoveRx cAMP in vitro potency, human VPAC2. In kind it is cell-based. The protocol: Also, the cells are washed twice. The cells are incubated in assay buffer plus IBMX for 15 minutes at room temperature. […] The stimuli are present for 30 minutes. Then, the assay buffer is gently removed. […] At day 3, the assay described above for the VPAC2 receptor cell line is performed.

Data set [2] deals with T1, human VPAC2. Put plainly: Alpha screen cAMP in vitro potency, human VPAC2. In kind it is cell-based.
The target in data set [3] is T1, human VPAC2. The data set can be described thus: Filter binding assay, human VPAC2 membranes, 125I-labeled VIP tracer.
For data set [4] the following is noted: 10 μM peptide in rat serum, 37° C. vs 4° C. with aprotinin, 18 hours; EC50,4C/EC50,37C.
Experimental: The rat serum is stored at 4° C. until use and is used within two weeks.
On Day 0, prepare two 100 μL aliquots of 10 μM peptide in rat serum by adding 10 μL peptide stock to 90 μL rat serum for each aliquot. Add 250 kIU aprotinin/mL to one of these aliquots. Store the aliquot with aprotinin at 4° C. Store the aliquot without aprotinin at 37° C. Allow the aliquots to incubate for 18 hours.
On Day 1, after incubation of the aliquots prepared on day 0 for 18 hours, prepare an incubation buffer containing PBS+1.3 mM CaCl2, 1.2 mM MgCl2, 2 mM glucose, and 0.25 mM IBMX. Prepare a plate with 11 serial 5× dilutions of peptide for the 4° C. and 37° C. aliquot for each peptide studied. […] Wash the plate(s) with cells twice in incubation buffer. Allow the plates to hold 50 μL incubation media per well for 15 minutes. Transfer 50 μL solution per well to the cells from the plate prepared with 11 serial 3× dilutions of peptide for the 4° C. and 37° C. aliquot for each peptide studied, using the maximal concentrations that are indicated by the primary screen, in duplicate. This step dilutes the peptide concentration by a factor of two. Incubate in room temperature for 30 minutes. Remove the supernatant. Add 40 μL/well of the DiscoveRx antibody/extraction buffer. Incubate on the shaker (300 rpm) for 1 hour. Proceed as normal with the DiscoveRx kit. Include cAMP standards in column 12. […]
The target of a further data set is rat VPAC2 receptor (Rattus norvegicus, UniProt P35000). Put plainly: cell-based.
Chain of rat VPAC2 receptor (P35000 23-437): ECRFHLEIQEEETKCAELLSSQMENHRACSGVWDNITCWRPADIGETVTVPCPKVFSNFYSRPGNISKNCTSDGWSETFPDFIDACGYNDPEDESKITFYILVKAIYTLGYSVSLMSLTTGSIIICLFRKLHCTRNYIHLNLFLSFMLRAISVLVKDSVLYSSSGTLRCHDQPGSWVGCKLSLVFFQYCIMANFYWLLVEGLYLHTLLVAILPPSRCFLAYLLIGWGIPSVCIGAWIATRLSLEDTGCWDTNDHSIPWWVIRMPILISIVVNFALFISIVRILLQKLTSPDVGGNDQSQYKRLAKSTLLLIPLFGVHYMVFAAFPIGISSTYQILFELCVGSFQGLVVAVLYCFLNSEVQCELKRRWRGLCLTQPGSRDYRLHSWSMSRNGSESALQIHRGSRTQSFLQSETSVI
For a further data set, the target named is T2, human VPAC1 (Homo sapiens, UniProt P32241).
T2 sequence (P32241 31-457): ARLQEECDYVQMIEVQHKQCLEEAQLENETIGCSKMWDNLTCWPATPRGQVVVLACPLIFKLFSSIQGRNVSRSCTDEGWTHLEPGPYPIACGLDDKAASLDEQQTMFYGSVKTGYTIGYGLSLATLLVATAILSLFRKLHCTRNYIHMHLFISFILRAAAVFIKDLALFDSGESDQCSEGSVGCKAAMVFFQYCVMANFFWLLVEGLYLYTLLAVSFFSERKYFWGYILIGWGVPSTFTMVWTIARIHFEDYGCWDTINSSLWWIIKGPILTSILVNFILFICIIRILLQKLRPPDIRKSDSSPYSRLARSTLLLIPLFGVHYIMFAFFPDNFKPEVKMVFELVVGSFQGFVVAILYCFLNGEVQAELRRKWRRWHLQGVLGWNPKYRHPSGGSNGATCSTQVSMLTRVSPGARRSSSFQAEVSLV
Put plainly: Filter binding assay, human VPAC1 membranes, 125I-labeled VIP tracer. On the set-up: expressed in transfected cells.

The target of data set [5] is T3, human VPAC1 receptor (human) (UniProt P32241).
T3 sequence: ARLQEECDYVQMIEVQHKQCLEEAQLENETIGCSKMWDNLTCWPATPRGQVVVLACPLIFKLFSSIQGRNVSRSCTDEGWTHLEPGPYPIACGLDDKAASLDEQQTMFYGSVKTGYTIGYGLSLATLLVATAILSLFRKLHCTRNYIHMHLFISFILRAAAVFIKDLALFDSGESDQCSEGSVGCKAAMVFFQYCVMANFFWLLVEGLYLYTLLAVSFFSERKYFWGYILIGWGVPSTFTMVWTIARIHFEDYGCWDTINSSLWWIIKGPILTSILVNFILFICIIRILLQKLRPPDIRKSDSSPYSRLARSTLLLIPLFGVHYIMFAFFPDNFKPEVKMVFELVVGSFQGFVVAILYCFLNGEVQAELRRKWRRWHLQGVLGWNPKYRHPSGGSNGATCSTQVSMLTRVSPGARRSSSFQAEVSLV

Data set [6] concerns the target T4, human VPAC2 receptor (human) (UniProt P41587).
T4 sequence: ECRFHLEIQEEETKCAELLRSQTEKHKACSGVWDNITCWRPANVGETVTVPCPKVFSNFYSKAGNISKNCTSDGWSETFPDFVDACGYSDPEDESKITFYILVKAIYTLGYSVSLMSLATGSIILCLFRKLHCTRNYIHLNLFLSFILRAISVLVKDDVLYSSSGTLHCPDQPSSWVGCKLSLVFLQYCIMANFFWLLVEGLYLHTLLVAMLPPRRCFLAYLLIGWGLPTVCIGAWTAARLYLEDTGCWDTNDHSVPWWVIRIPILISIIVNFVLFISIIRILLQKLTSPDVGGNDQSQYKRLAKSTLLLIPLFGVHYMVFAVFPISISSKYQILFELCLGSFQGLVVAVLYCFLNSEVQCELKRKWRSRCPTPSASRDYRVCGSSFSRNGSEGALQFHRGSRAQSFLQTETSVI

For another data set, the target named is human PAC1 receptor (human, UniProt P41586). Put plainly: cell-based or functional assay.
The target in the next data set is T5, rat VPAC1 receptor (rat, UniProt P30083).
T5 sequence: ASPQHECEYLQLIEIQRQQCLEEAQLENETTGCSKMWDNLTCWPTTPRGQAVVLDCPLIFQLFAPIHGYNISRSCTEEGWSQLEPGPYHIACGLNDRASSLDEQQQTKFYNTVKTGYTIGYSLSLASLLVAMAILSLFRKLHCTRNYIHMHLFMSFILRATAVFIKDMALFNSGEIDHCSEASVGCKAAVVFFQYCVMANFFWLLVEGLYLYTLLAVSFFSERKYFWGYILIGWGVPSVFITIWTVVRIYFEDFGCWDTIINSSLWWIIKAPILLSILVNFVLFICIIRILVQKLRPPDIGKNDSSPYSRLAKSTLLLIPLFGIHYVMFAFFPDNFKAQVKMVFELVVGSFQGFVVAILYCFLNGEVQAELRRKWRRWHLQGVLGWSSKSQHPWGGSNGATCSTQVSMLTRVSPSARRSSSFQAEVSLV
Put plainly: cell-based or functional assay.

Experimental for rat VPAC2 receptor: DiscoveRx: A CHO—S cell line stably expressing human VPAC2 receptor in a 96-well microtiter plate is seeded with 50,000 cells/well the day before the assay. The cells are allowed to attach for 24 hours in 200 μL culture medium. On the day of the experiment, the medium is removed. Also, the cells are washed twice. The cells are incubated in assay buffer plus IBMX for 15 minutes at room temperature. Afterwards, the stimuli are added and are dissolved in assay buffer. The stimuli are present for 30 minutes. Then, the assay buffer is gently removed. The cell lysis reagent of the DiscoveRx cAMP kit is added. Thereafter, the standard protocol for developing the cAMP signal as described by the manufacturer is used (DiscoveRx Inc., USA). EC50 values for cAMP generation are calculated from the raw signal or are based on absolute cAMP levels as determined by a standard curve performed on each plate.
CHO—PO cells are transiently transfected with rat VPAC1 or VPAC2 receptor DNA.

For orientation: EC50 means the concentration needed to bring the measured effect to its halfway point. Lower therefore signals higher potency in that assay. Usually IC50 stands for the concentration needed to halve the response being measured. Regarding `CCCCCCCCCCCCCCCC(=O)N[C@@H](CCC(=O)NCCCC[C@H](NC(=O)[C@@H]1CCCN1C(=O)[C@@H]1CCCN1C(=O)[C@@H]1CCCN1C(=O)[C@H](CO)NC(=O)[C@@H](NC(=O)[C@H](CCCNC(=N)N)NC(=O)[C@H](CO)NC(=O)[C@H](CC(N)=O)NC(=O)[C@H](CCCCN)NC(=O)[C@@H](NC(=O)[C@H](CO)NC(=O)[C@H](CCC(N)=O)NC(=O)[C@H](CC(C)C)NC(=O)[C@H](Cc1ccc(O)cc1)NC(=O)[C@H](CCCCN)NC(=O)[C@H](CCCCN)NC(=O)[C@H](C)NC(=O)[C@H](C)NC(=O)[C@@H](NC(=O)[C@H](CCC(N)=O)NC(=O)[C@H](CCCCN)NC(=O)[C@H](CCCNC(=N)N)NC(=O)[C@H](CC(C)C)NC(=O)[C@H](CCCNC(=N)N)NC(=O)[C@@H](NC(=O)[C@H](Cc1ccc(O)cc1)NC(=O)[C@H](CC(N)=O)NC(=O)[C@H](CC(=O)O)NC(=O)[C@@H](NC(=O)[C@H](Cc1ccccc1)NC(=O)[C@@H](NC(=O)[C@H](C)NC(=O)[C@H](CC(=O)O)NC(=O)[C@H](CO)NC(=O)[C@H](Cc1c[nH]cn1)NC(=O)CCCCC)C(C)C)[C@@H](C)O)[C@@H](C)O)C(C)C)[C@@H](C)CC)[C@@H](C)O)C(N)=O)C(=O)O` [Agonist P81] (Hexanoyl-HSDAVFTDNYTRLRKQVAAKKYLQSIKNSRTSPPPK([γGlu-Palmitoyl])-NH2), the EC50 on human VPAC2 [1] is 0.18 nM; at human VPAC2 [2] it was 0.01 nM; at rat VPAC2 receptor it was 0.05 nM. Besides, the values for the IC50 at human VPAC2 [3] and on human VPAC1 were 0.8 nM and 228 nM, respectively. Besides, the “Rat Serum Stability (Estimated purity in % after 18 hours)” value in data set [4] is reported as 68.05%.
Turning to Ac-HSDAVFTDNYTRLRKQVAAKKYLQSIKNSRTSPPP-NH2 [P32], the values for the EC50 (nM) for cAMP generation, DiscoveRx (in [5]; in data set [6]; with human PAC1 receptor) were 8.24 nM, 0.65 nM and 125 nM, respectively. This molecule showed an EC50 (nM) for cAMP generation, Alpha Screen in data set [6] of 0.32 nM. Besides, the “EC50 for cAMP generation, DiscoveRx” value with rat VPAC1 receptor came to 0.73 nM.
